# Laboratory results taken from publication PMC2063170, “A phase I clinical and pharmacokinetic study of the new topoisomerase inhibitor GI147211 given as a 72-h continuous infusion” (British Journal of Cancer, 1998).
# “And” between values parts separate entries of the source, which are not always exact repeats. Equal entries are not always repeated.
# How the values were obtained:
# [1] = Phase I toxicity (Common Toxicity Criteria), 72-h continuous infusion; settings: for MTD: 72-h infusion
# Description: (§1) Brrtish Joumal of Cancer(1998) 78(10). 1329-1336 @ 1998 Cancer Research Campaign A phase I clinical and pharmacokinetic study of the new topoisomerase inhibitor G1147211 given as a 72-h continuous infusion L Paz-Aresl*, R Kunkal 2, D DeMarial-3, J Cassidy' 4, M Alden3, P Beranek2, S Kaye', D Littlefield2, D Reilly3, S Depee2, P Wissel2, C Twelves' and P O'Dwyer3 CRC Department of Medical Oncology. University of Glasgow. Westem Infirmary Hospital. Glasgow Gll 6NT. UK; 2Glaxo Wellcome Research. Five Moore Drive. Research Triangle Park. NC 27709. USA; 'Fox Chase Cancer Center. 7701 Burholme Avenue. Philadelphia, PA 19111. USA: 4Thomas Jefferson University. Kimmel Cancer Institute. Bluemle Life Sciences Building. 233 S. 10th Street. Suite 502. Philadelphia. PA 19107. […] This study was designed to determine the maximum tolerated dose of Gl147211 as a 72-h infusion and to describe its pharmacokinetics and pharmacodynamics on this schedule. In a single-arm, rising-dose study in patients with advanced cancer, eight cohorts of three or more patients received 72-h infusions of G1147211 at doses ranging from 0.25 to 2.5 mg m-2 day-'. […] Whole-blood G1147211 lactone, total blood and total concentrations were measured during and over the 12 h following the infusion. […] Extensive phase 11 evaluation of this compound and further phase I trials evaluating more prolonged infusions are ongoing. Keywords: G1147211: GG211: camptothecin analogues: topoisomerase I inhibitor; phase I trial; pharmacokinetics: pharmacodynamics: continuous infusion GI 147211 (7-4 methyl piperazinomethilene)- 10.1 1 -ethylenedioxy - 20-(S camptothecin: Figure 1) is a totally synthetic analogue of camptothecin. a natural product isolated from Camptotheca acuminata (WAall et al. 1966: Emerson et al. 1995). […] The nuclear enzyvme DNA topoisomerase I. x hich relaxes DNA supercoils arising during, replication and gene tran- scription. has been identified as the specific targret of camptothecin (Hsianer and Liu. 1988: Wall and Wani. 1995).
# [2] = tested on: melanoma cell line Lox; set-up: method as in Emerson et al. 1995; settings: ref Emerson et al. 1995; cited from earlier work
# [3] = tested on: refractory solid tumours; assay: Anti-tumour activity in phase I patients; format: in vivo
# Description: as §1
# [4] = tested on: in vitro models; set-up: method as in Slichenmyer et al. 1993: Emerson et al. 1995; settings: ref Slichenmyer et al. 1993: Emerson et al. 1995; cited from earlier work
# [5] = heavy pretreatment, 1.2 mg m-2 day-1, n=3
# [6] = heavy pretreatment, 1.5 mg m-2 day-1, n=4
# [7] = heavy pretreatment, 2.0 mg m-2 day-1, n=1
# [8] = minimal pretreatment, 1.5 mg m-2 day-1, n=5
# [9] = minimal pretreatment, 1.75 mg m-2 day-1, n=3
# [10] = minimal pretreatment, 2.0 mg m-2 day-1, n=10
# [11] = minimal pretreatment, 2.5 mg m-2 day-1, n=2
compound,measurement,setting,value
"CC[C@@]1(O)C(=O)OCc2c1cc1n(c2=O)Cc2c-1nc1cc3c(cc1c2CN1CCN(C)CC1)OCCO3 [GI147211, 7-4 methyl piperazinomethilene)-10.1 1-ethylenedioxy - 20-(S camptothecin]","Anaemia, patients with worst CTC grade 1","[1]; 0.25 mg m-2 day-1, n=6",2 patients
same,"Thrombocytopenia, patients with worst CTC grade 1","[1]; 0.25 mg m-2 day-1, n=6",1 patients
same,"Anaemia, patients with worst CTC grade 1","[1]; 0.50 mg m-2 day-1, n=4",1 patients
same,"Leucopenia, patients with worst CTC grade 1","[1]; 0.50 mg m-2 day-1, n=4",1 patients
same,"Anaemia, patients with worst CTC grade 3","[1]; 1.0 mg m-2 day-1, n=5",1 patients
same,"Leucopenia, patients with worst CTC grade 2","[1]; 1.0 mg m-2 day-1, n=5",1 patients
same,"Leucopenia, patients with worst CTC grade 3","[1]; 1.0 mg m-2 day-1, n=5",1 patients
same,"Neutropenia, patients with worst CTC grade 1","[1]; 1.0 mg m-2 day-1, n=5",1 patients
same,"Thrombocytopenia, patients with worst CTC grade 1","[1]; 1.0 mg m-2 day-1, n=5",1 patients
same,"Thrombocytopenia, patients with worst CTC grade 4","[1]; 1.0 mg m-2 day-1, n=5",1 patients
same,Patients with central venous catheter associated infections requiring i.v. antibiotics,[1]; 39 patients treated through central venous catheters,Five
same,Patients complaining of headache while receiving the infusion,[1]; all doses,Twenty
same,Patients with alopecia,"[1]; all doses, 44 patients",14 patients
same,Patients with grade I or II nausea,"[1]; all doses, 44 patients",Twenty-six
same,Patients with grade I or II vomiting,"[1]; all doses, 44 patients",16 patients
same,Patients with grade III vomiting,"[1]; all doses, 44 patients",Three
same,Patients with mild diarrhoea,"[1]; all doses, 44 patients",seven
same,Patients with grade II or III anaemia,[1]; doses > 1.2 mg m-2 day-1,15 of 29
same,Phlebitis at the site of venepuncture,"[1]; five patients infused through peripheral veins, doses < 1.0 mg m-2 day-1",All of these patients developed phlebitis
same,Recommended phase II dose,[1]; heavily pretreated patients,1.2 mg m-2 day-1
same,MTD,[1]; heavily pretreated patients,1.2 mg m-2 day-1
same,Time of platelet nadir after the beginning of the infusion,"[1]; heavily pretreated, 1.2 mg m-2 day-1, range 15-22",18 days
same,"Platelet nadir, median count","[1]; heavily pretreated, 1.2 mg m-2 day-1, range 31-93",7.5e+10 L⁻¹
same,"Anaemia, patients with worst CTC grade 1",[1]; [5],1 patients
same,"Anaemia, patients with worst CTC grade 2",[1]; [5],2 patients
same,"Leucopenia, patients with worst CTC grade 1",[1]; [5],1 patients
same,"Leucopenia, patients with worst CTC grade 2",[1]; [5],1 patients
same,"Neutropenia, patients with worst CTC grade 1",[1]; [5],1 patients
same,"Thrombocytopenia, patients with worst CTC grade 1",[1]; [5],2 patients
same,"Thrombocytopenia, patients with worst CTC grade 3",[1]; [5],1 patients
same,"Anaemia, patients with worst CTC grade 1",[1]; [6],1 patients
same,"Anaemia, patients with worst CTC grade 2",[1]; [6],2 patients
same,"Leucopenia, patients with worst CTC grade 3",[1]; [6],2 patients
same,"Leucopenia, patients with worst CTC grade 4",[1]; [6],1 patients
same,"Neutropenia, patients with worst CTC grade 4",[1]; [6],3 patients
same,"Thrombocytopenia, patients with worst CTC grade 4",[1]; [6],3 patients
same,"Anaemia, patients with worst CTC grade 3",[1]; [7],1 patients
same,"Leucopenia, patients with worst CTC grade 4",[1]; [7],1 patients
same,"Neutropenia, patients with worst CTC grade 4",[1]; [7],1 patients
same,"Thrombocytopenia, patients with worst CTC grade 4",[1]; [7],1 patients
same,Induction of diarrhoea,[1]; in contrast to irinotecan,does not induce diarrhoea
same,Patients with grade IV neutropenia who developed fever,"[1]; in vivo, iv",Five of the ten
same,"Anaemia, patients with worst CTC grade 2",[1]; [8],2 patients
same,"Anaemia, patients with worst CTC grade 3",[1]; [8],2 patients
same,"Leucopenia, patients with worst CTC grade 2",[1]; [8],2 patients
same,"Leucopenia, patients with worst CTC grade 4",[1]; [8],1 patients
same,"Neutropenia, patients with worst CTC grade 3",[1]; [8],2 patients
same,"Neutropenia, patients with worst CTC grade 4",[1]; [8],1 patients
same,"Thrombocytopenia, patients with worst CTC grade 1",[1]; [8],1 patients
same,"Thrombocytopenia, patients with worst CTC grade 2",[1]; [8],1 patients
same,"Thrombocytopenia, patients with worst CTC grade 3",[1]; [8],1 patients
same,"Thrombocytopenia, patients with worst CTC grade 4",[1]; [8],1 patients
same,"Anaemia, patients with worst CTC grade 1",[1]; [9],1 patients
same,"Anaemia, patients with worst CTC grade 3",[1]; [9],1 patients
same,"Leucopenia, patients with worst CTC grade 3",[1]; [9],1 patients
same,"Neutropenia, patients with worst CTC grade 3",[1]; [9],1 patients
same,"Anaemia, patients with worst CTC grade 1",[1]; [10],4 patients
same,"Anaemia, patients with worst CTC grade 2",[1]; [10],4 patients
same,"Anaemia, patients with worst CTC grade 3",[1]; [10],1 patients
same,"Leucopenia, patients with worst CTC grade 1",[1]; [10],4 patients
same,"Leucopenia, patients with worst CTC grade 2",[1]; [10],1 patients
same,"Leucopenia, patients with worst CTC grade 3",[1]; [10],1 patients
same,"Leucopenia, patients with worst CTC grade 4",[1]; [10],2 patients
same,"Neutropenia, patients with worst CTC grade 1",[1]; [10],2 patients
same,"Neutropenia, patients with worst CTC grade 2",[1]; [10],2 patients
same,"Neutropenia, patients with worst CTC grade 4",[1]; [10],3 patients
same,"Thrombocytopenia, patients with worst CTC grade 1",[1]; [10],2 patients
same,"Thrombocytopenia, patients with worst CTC grade 2",[1]; [10],1 patients
same,"Thrombocytopenia, patients with worst CTC grade 3",[1]; [10],4 patients
same,"Anaemia, patients with worst CTC grade 3",[1]; [11],1 patients
same,"Leucopenia, patients with worst CTC grade 3",[1]; [11],1 patients
same,"Leucopenia, patients with worst CTC grade 4",[1]; [11],1 patients
same,"Neutropenia, patients with worst CTC grade 4",[1]; [11],2 patients
same,"Thrombocytopenia, patients with worst CTC grade 3",[1]; [11],1 patients
same,"Thrombocytopenia, patients with worst CTC grade 4",[1]; [11],1 patients
same,Dose at which neutropenia was dose limiting,[1]; minimally pretreated patients,2.0 mg m-2 day-1
same,MTD,[1]; minimally pretreated patients,2.0 mg m-2 day-1
same,"Nadir neutrophil count, median value","[1]; minimally pretreated, 2.0 mg m-2 day-1, range 0.02-3.92",1.59e+09 L⁻¹
same,"Platelet nadir, median value","[1]; minimally pretreated, 2.0 mg m-2 day-1, range 7-219",7.2e+10 L⁻¹
same,Day of platelet nadir,"[1]; minimally pretreated, 2.0 mg m-2 day-1, range 8-20",15 days
same,"Time of lowest nadir neutrophil count, median","[1]; minimally pretreated, 2.0 mg m-2 day-1, range 10-22",16.5 days
same,Dose at which neutropenia and thrombocytopenia were limiting,[1]; more heavily pretreated patients,1.5 mg m-2 day-1
same,Time to recovery of phlebitis,[1]; peripheral vein infusions,7 to 24 days
same,Median duration of grade IV neutropenia episodes,[1]; range 1-14,5 days
same,Median duration of grade III or IV thrombocytopenia,[1]; range 1-10 days,4 days
same,Recommended phase II dose,[1]; untreated/minimally pretreated patients,1.75 mg m-2 day-1
same,50% growth inhibition concentration,[2],0.592 ng/mL
same,Number of minor responses,[3]; 44 patients,two
same,Number of partial responses,[3]; 44 patients,Three
same,Duration of partial response,"[3]; individual patients (breast, ovarian, colorectal cancer)",8 weeks and 30 weeks and ≥ 34 weeks
same,Decrease in hepatic lesions,[3]; patient with colorectal cancer,44%
same,Decrease in hepatic lesions,[3]; patient with hepatoma,36%
same,Activity relative to topotecan,[4],2-5 times more active
